Results reported in patent EP1078629A2 (GLAXO GROUP LIMITED, priority 1989, dated 1991).

Legend:
[1] = tested on: histamine-induced PPE; assay: Histamine-induced plasma protein extravasation in the lung; assay type: in vivo, guinea-pigs
Excerpt: Briefly, guinea-pigs (male Dunkin Hartley, 300-400g) were given an intracardiac injection of iodinated human serum albumin (0.5µCi) in heparinised saline (10U.ml^-1).

[2] = tested on: Zymosan-induced Granylocyte-dependent PPE; assay: Zymosan-induced granulocyte-dependent plasma protein extravasation in skin; assay type: in vivo, guinea-pig; set-up: Zymosan-induced Granylocyte-dependent PPE: unit not given here
Method: (§1) The effect of β2-adrenoreceptor agonists on granulocyte-dependent and independent vascular permeability induced in guinea-pig skin, by intradermal challenge with zymosan and histamine respectively, was evaluated using a modification of the method of Issekutz Lab. Invest .,45 , 435-441(1981).
(§2) Plasma protein extravasation (PPE) was calculated as µl plasma equivalents.

[3] = tested on: Histamine-induced Granulocyte Independent PPE; assay: Histamine-induced granulocyte-independent plasma protein extravasation in skin; assay type: in vivo, guinea-pig
Method: as §1, §2

[4] = tested on: zymosan-induced PMN cell accumulation in guinea-pig skin; assay: Zymosan-induced PMN cell accumulation in skin; conditions: for % Inhibition of PMN cell accumulation: together with zymosan 0.2mg.site^-1
[5] = tested on: LPS-induced neutrophil accumulation; assay: LPS-induced neutrophil accumulation in bronchoalveolar lavage fluid; assay type: in vivo, guinea-pigs; conditions: 0.1 mg.ml^-1 aerosol 30 min prior to LPS 100µg.ml^-1; 4 hours after challenge (LPS alone 141.3 ± 33.3, baseline 3.8 ± 1.2)
Method: (§3) Briefly, guinea-pigs (male Dunkin Hartley, 300-400g) were exposed to an aerosol of 100µg.ml^-1 E. coli lipopolysaccharide (LPS;026:B6, Sigma Ltd) or 100µg.ml^-1 platelet activating factor (PAF; Sigma Ltd.) for 10 min. […] The total leukocyte count of the bronchoalveolar lavage fluid (BALF) recovered was determined. A cytospin preparation was prepared from the BALF, fixed with methanol, stained with Wright's stain and a differential leukocyte count was carried out.

[6] = tested on: PAF-induced eosinophil infiltration; assay: PAF-induced eosinophil infiltration in bronchoalveolar lavage fluid; assay type: in vivo, guinea-pigs; conditions: inhalation 0.1mg.ml^-1 30 min prior to PAF 100µg.ml^-1; 24 hours after challenge (PAF alone 97.7 ± 18.8, baseline 53.3 ± 12.5)
Method: as §3

[7] = Cavia porcellus, PMN, po, read-out: % Inhibition of PMN cell accumulation

Row | SMILES | ED50 ([1]; Cavia porcellus, po, 0.5 h, p.o., 30 min prior to histamine, read-out: ED50, inhibition of histamine-induced PPE) | time after which there is substantial loss of activity against histamine induced PPE ([1]; equi-effective doses) | inhibitory effect on zymosan-induced PPE ([2]; 10-100mg.kg^-1 p.o.) | dose required for a comparable effect on granulocyte-independent PPE, relative to salmeterol ([3]; compared with salmeterol 10mg.kg^-1 p.o.) | inhibitory effect on PMN cell accumulation ([4]; 10-100mg.kg^-1 p.o.) | BALF neutrophil count [5] | BALF eosinophil count [6] | inhibition of histamine-induced PPE at the highest doses ([1]; aerosol, nebuliser concentration 0.001-1mg.ml^-1) | Zymosan-induced Granylocyte-dependent PPE ([2]; Intradermal 10^-8 (nmol.site^-1), co-administered with zymosan) | Zymosan-induced Granylocyte-dependent PPE ([2]; Intradermal 10^-9 (nmol.site^-1), co-administered with zymosan) | Zymosan-induced Granylocyte-dependent PPE ([2]; Oral 1.0 mg.kg^-1, 1 hour before zymosan 0.2mg.site^-1) | Zymosan-induced Granylocyte-dependent PPE ([2]; Oral 10.0 mg.kg^-1, 1 hour before zymosan 0.2mg.site^-1) | Histamine-induced Granulocyte Independent PPE ([3]; Oral 1.0 mg.kg^-1, 1 hour before histamine 100ng.site^-1) | Histamine-induced Granulocyte Independent PPE ([3]; Oral 10.0 mg.kg^-1, 1 hour before histamine 100ng.site^-1) | inhibition at 1 mg/kg [4, 7] | inhibition at 10 mg/kg [4, 7] | % Inhibition of PMN cell accumulation ([4]; Intradermal 10^-8 (nmol.site^-1)) | % Inhibition of PMN cell accumulation ([4]; Intradermal 10^-9 (nmol.site^-1))
1 | CC(C)(C)NCC(O)c1ccc(O)c(CO)c1 (stereo not drawn) [salbutamol, reference compound] | 0.02 mg/kg | 2 h | no inhibitory effect | Approximately 10 fold | no significant inhibitory effect | – | – | – | – | – | – | – | – | – | – | – | – | –
2 | OCc1cc(C(O)CNCCCCCCOCCCCc2ccccc2)ccc1O (stereo not drawn) [salmeterol, 4-hydroxy-α^1-[[[6-(4-phenylbutoxy)hexyl]amino]methyl]-1,3-benzenedimethanol] | – | – | – | – | – | 46.8 ± 9.1 x10^3 cells.ml^-1 | 59.2 ± 19.8 x10^3 cells.ml^-1 | complete inhibition | 51.7 | 1.8 | 47.0 | 56.0 | 9.2 | 58.5 | 27% | 59% | 51% | 16%
